Data on two substances can be found in patent US20260132165A1, “MODIFIED NUCLEOSIDE ANALOGUE AND USE THEREOF, AND NUCLEOSIDE ANALOGUE-CONTAINING DOUBLE-STRANDED OLIGONUCLEOTIDE AND USE THEREOF” (RIGERNA THERAPEUTICS (BEIJING) CO., LTD., priority 2023, published 2026).

Series [1] relates to target gene SOD1. Briefly: Test Example 6: inhibitory activity of NM073, NM074 conjugated siRNA sequences on SOD1 by intrathecal administration to rats. Type of series: in vivo, SD rats. To be noted: intrathecal, 900 μg per rat, D28. Here is the method:
6-8 Week-old SD rats were randomly grouped by body weight. Rats in each group were administered with siRNA by intrathecal administration, with an administration dose of 900 μg per rat. Injection was administered from rat spinal cord L5-L6, with an administration volume of 40 μL. Needle was retained for 2 min after completion of injection, and then slowly withdrawn. PBS control group was administered with the same volume of siRNA conjugate-free PBS solution. The day of administration was recorded as 0 day (D0), and the rats were sacrificed at observation point after administration. Different segments of spinal cord and different regions of brain were respectively taken and stored in the RNAlater.
(§1) RNA extraction: the above tissue samples were taken out from the RNAlater, and smashed for 60 s in Tissuelyser type II full-automatic tissue homogenizer, and total RNAs of various tissue samples were extracted using the full-automatic nucleic acid extraction instrument and the nucleic acid extraction kit from Zhejiang Hanwei Science and Technology Co. Ltd. according to methods described in instructions.
(§2) Reverse transcription reaction: 1 μg of the extracted total RNAs of the tissue samples were taken, and configured into 20 μL of reverse transcription system according to a method described in kit instructions by using a reverse transcription kit (Reverse Transcription System, A3500) from Promega Corporation and selecting Oligo (dT)15 reverse transcription primers, and the reverse transcription reaction was completed. After the reaction was ended, 80 μL of RNase-Free water was added into the reverse transcription system to provide cDNA solution for Real-time PCR detection.
(§3) Real-time PCR detection: 20 μL of Real-time PCR reaction system per PCR detection well was configured according to a method described in kit instructions using SYBR™ Select Master Mix (Catalog number: 4472908) reagent from ABI company. Each detection system contained 5 μL of cDNA template obtained from the above reverse transcription reaction, 10 μL of SYBR™ Select Master Mix, 0.5 μL of 10 μM upstream primers, 0.5 μL of 10 μM downstream primers, and 4 μL of RNase-Free H2O. The configured reaction system was subjected to Real-time PCR amplification on ABI StepOnePlus PCR instrument by a three-step method, wherein an amplification procedure was pre-denaturation at 95° C. for 10 min, then denaturation at 95° C. for 30 s, annealing at 60° C. for 30 s, and extension at 72° C. for 30 s; and processes of denaturation, annealing, and extension were repeated for 40 cycles. Gene expression differences were calculated by the ΔΔCt method after completion of the procedure.
(§4) In the real-time fluorescence quantitative PCR method, relative quantitative calculation of remaining expression level and inhibition rate of gene mRNA of interest in various test groups was performed by the ΔΔCt method, and the calculation method is as follows:
The present test example evaluated, by an evaluation method for inhibitory activity on a target gene by intrathecal administration to rats, the inhibitory activity of siRNA sequence RZ899090 with the NM073 conjugation at Position 4, siRNA sequence RZ899091 with the NM074 conjugation at Position 4 and siRNA control sequence RZ899093 with the Uhd conjugation on the target gene SOD1 of interest in spinal cord and brain of rats. The above conjugation vectors were different in that NM073 was C18 aliphatic chain and NM074 was C20 aliphatic chain.
6-8 Week-old SD rats were randomly grouped by body weight, 5 per group, 4 groups in total. Rats in each group were dosed with the above siRNA conjugates by intrathecal administration, with an administration dose of 900 μg per rat, and an administration volume of 40 μL. PBS control group was administered with the same volume of siRNA conjugate-free PBS solution. The day of administration was recorded as D0, and the rats were sacrificed on D28 after administration. […]

Series [2] deals with target gene SOD1. The series can be described thus: Test Example 7: inhibitory activity of lipid conjugated siRNA sequences on SOD1 in mouse adipose and muscle tissues (tail vein injection). Type of series: in vivo, C57BL/6j mice. To be noted: tail vein injection 5 mg/kg; for D 14 % Mean value of inhibition rate / Kidney D 14 % Mean value of inhibition rate / Liver D 14 % Mean value of inhibition rate: D14; for D 28 % Mean value of inhibition rate / Kidney D 28 % Mean value of inhibition rate / Liver D 28 % Mean value of inhibition rate: D28; for D 49 % Mean value of inhibition rate / Kidney D 49 % Mean value of inhibition rate / Liver D 49 % Mean value of inhibition rate: D49; for Kidney D 14 % Mean value of inhibition rate / Kidney D 28 % Mean value of inhibition rate / Kidney D 49 % Mean value of inhibition rate: mouse kidney; for Liver D 14 % Mean value of inhibition rate / Liver D 28 % Mean value of inhibition rate / Liver D 49 % Mean value of inhibition rate: mouse liver. Here is the method: as §1, §2, §3, §4
The present test example evaluated, by an evaluation method for inhibitory activity on a target gene in mice, the inhibitory activity of siRNA sequence RZ899090 with the sense strand with the NM073 conjugation at Position 4, siRNA sequence RZ899091 with the sense strand with the NM074 conjugation at Position 4, siRNA sequence RZ899078 with the sense strand with the NM202 conjugation at Position 6 and siRNA reference sequence RZ899093 with the sense strand with the Uhd conjugation at Position 4, and siRNA reference sequence RZ899076 with the sense strand with the NM200 conjugation at Position 4 on the target gene SOD1 of interest in mice. The above conjugation vectors were different in that NM073 was C18 aliphatic chain, NM074 was C20 aliphatic chain, and NM0202 and NM0200 were C22 aliphatic chains.
6-8 Week-old C57BL/6j mice were randomly grouped by body weight, 15 per group, 6 groups in total. Mice in each group were dosed with the above siRNA conjugates by tail vein injection, with an administration dose of 5 mg/kg per mouse, and an administration volume of 150 μL. PBS control group was administered with the same volume of siRNA conjugate-free PBS solution. The day of administration was recorded as D0, and 5 mice in each group were sacrificed on D14, D28 and D49 after administration. Tissues such as paragonadal fat, left hind leg quadriceps muscle, heart, liver, and kidney were respectively taken and stored in the RNAlater. RNA extraction, reverse transcription, and real-time fluorescence quantitative detection were performed on various tissues according to the above method, and gene expression differences were calculated by the above ΔΔCt method.

[3] abbreviates: mouse adipose tissues (paragonadal fat).
Setting [4] is: mouse skeletal muscle tissues (left hind leg quadriceps muscle).

Strand notation (5' to 3'): a small letter for the sugar, then the base; units joined by * are phosphorothioate-linked, units joined directly phosphodiester-linked; [ ] holds rarer units or linkages, { } end groups; capitals alone tell only the bases. [Uhd] = commercial lipid-conjugated uridine analogue Uhd (C16), from Hongene, reference; {VP} = (thio)vinylphosphonate on the antisense 5' nucleotide, as listed; e = 2'-O-(2-methoxyethyl) (MOE); m = 2'-O-methyl; f = 2'-fluoro

As to “RZ899093: siRNA reference sequence with the sense strand with the Uhd (C16) conjugation at Position 4; SEQ ID NO: 13 / 23 (sense mU*mU*mU[Uhd]mAmAfUfCfCfUmCmAmCmUmCmUmAmAmA; antisense {VP}-mU*fU*mUmAmGfAmGmUmGmAmGfGmAfUeUfAmAmAmA*mU*mG) [reference compound]”, the “Cerebellum % Mean value of inhibition rate” value in series [1] (cerebellum) is given as 55.89%. Moreover, the “Cortex % Mean value of inhibition rate” value in series [1] (cerebral cortex) came out at 36.29%. Besides, the “Hippocampus % Mean value of inhibition rate” value in series [1] (hippocampus) came out at 52.87%. Moreover, the “Cervical segment % Mean value of inhibition rate” value in series [1] (spinal cord cervical segment) was determined as 69.68%. Further, the “Lumbar segment % Mean value of inhibition rate” value in series [1] (spinal cord lumbar segment) is 95.31%. Besides, in series [1] (spinal cord thoracic segment), the “Thoracic segment % Mean value of inhibition rate” value worked out at 94.90%. Moreover, in series [2] (setting [3]), the “D 14 % Mean value of inhibition rate” value is 88.95%, the “D 28 % Mean value of inhibition rate” value is given as 81.22% and the “D 49 % Mean value of inhibition rate” value came out at 81.75%. In addition, in series [2] (mouse heart tissues), the “D 14 % Mean value of inhibition rate” value was determined as 57.83%, the “D 28 % Mean value of inhibition rate” value was 60.42% and the “D 49 % Mean value of inhibition rate” value is recorded as 44.18%. For the same substance, in series [2], the “Kidney D 14 % Mean value of inhibition rate” value was 42.87%, the “Kidney D 28 % Mean value of inhibition rate” value worked out at 19.28%, the “Kidney D 49 % Mean value of inhibition rate” value turned out to be 18.90% and the “Liver D 14 % Mean value of inhibition rate” value was 48.04%. In series [2], the “Liver D 28 % Mean value of inhibition rate” value is on record as 13.41% and the “Liver D 49 % Mean value of inhibition rate” value came to 13.02%. In series [2] (setting [4]), the “D 14 % Mean value of inhibition rate” value was found to be 68.42%, the “D 28 % Mean value of inhibition rate” value worked out at 64.12% and the “D 49 % Mean value of inhibition rate” value worked out at 44.88%.
Turning to “RZ899076: siRNA reference sequence with the sense strand with the NM200 (C22) conjugation at Position 4; SEQ ID NO: 18 / 24 (sense UUUNAAUCCUCACUCUAAA; antisense UUUAGAGUGAGGAUUAAAAUG; NM200 (C22) conjugate at sense position 4; modified_base 1..2 OTHER; 2'-methoxy and 5'-thiophosphate modified nucleotides; modified_base 3 OTHER; 2'-methoxy modified nucleotide; modified_base 4 OTHER; n is the synthetic nucleotide analog NM200 as described in the disclosure.; modified_base 5..6 OTHER; 2'-methoxy modified nucleotides; modified_base 7..10 OTHER; 2'-fluoro modified nucleotides; modified_base 11..19 OTHER; 2'-methoxy modified ; modified_base 1 OTHER; 2'-methoxy and 5'-thiovinylphosphonate modified nucleotide; modified_base 2 OTHER; 2'-fluoro and 5'-thiophosphate modified …) [reference compound]”, in series [2] (setting [3]), the “D 14 % Mean value of inhibition rate” value stood at 92.23%, the “D 28 % Mean value of inhibition rate” value was 86.10% and the “D 49 % Mean value of inhibition rate” value is 73.36%. Besides, in series [2] (mouse heart tissues), the “D 14 % Mean value of inhibition rate” value is 70.04%, the “D 28 % Mean value of inhibition rate” value is 70.45% and the “D 49 % Mean value of inhibition rate” value was found to be 37.03%. Also, in series [2], the “Kidney D 14 % Mean value of inhibition rate” value was 9.13%, the “Kidney D 28 % Mean value of inhibition rate” value came out at 9.82%, the “Kidney D 49 % Mean value of inhibition rate” value worked out at 7.06% and the “Liver D 14 % Mean value of inhibition rate” value is given as 51.15%. In addition, in series [2], the “Liver D 28 % Mean value of inhibition rate” value is on record as 15.46% and the “Liver D 49 % Mean value of inhibition rate” value is reported as −13.46%. In addition, in series [2] (setting [4]), the “D 14 % Mean value of inhibition rate” value is on record as 82.53%, the “D 28 % Mean value of inhibition rate” value stood at 81.97% and the “D 49 % Mean value of inhibition rate” value amounted to 66.88%.
